Source: patent US5399487A, “6-peptidylamino-1-naphthalenesulfonamides useful as fluorogenic proteolytic enzyme substrates” (Haematologic Technologies, Inc., priority 1993, dated 1995)
Where a SMILES comes first, the peptide text is derived from it. The star is where a group is joined. pNA = O=[N+]([O-])c1ccc(N*)cc1; Tos = Cc1ccc(S(=O)(=O)*)cc1

Key:
Type in all cases: biochemical
factor VIIa = biological target: T1, factor VIIa (Homo sapiens, UniProt P08709); assay: Fluorogenic enzyme assay, relative hydrolysis rates (Table 8); conditions: at 100 hours; 10 nM enzyme, substrate 1 μM
T1 construct: directly measure the enzymatic activity of factor VIIa in the presence and absence of tissue factor and phospholipid
T1 sequence (P08709 213-466 limits assumed): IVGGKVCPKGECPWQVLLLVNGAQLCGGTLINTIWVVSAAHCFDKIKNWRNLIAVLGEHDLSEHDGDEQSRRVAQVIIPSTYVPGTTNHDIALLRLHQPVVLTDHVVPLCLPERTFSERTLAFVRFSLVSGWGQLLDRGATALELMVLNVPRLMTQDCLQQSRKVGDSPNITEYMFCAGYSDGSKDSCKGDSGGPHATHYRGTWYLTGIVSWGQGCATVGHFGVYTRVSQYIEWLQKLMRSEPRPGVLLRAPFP
T1 sequence (P08709 61-212 limits assumed): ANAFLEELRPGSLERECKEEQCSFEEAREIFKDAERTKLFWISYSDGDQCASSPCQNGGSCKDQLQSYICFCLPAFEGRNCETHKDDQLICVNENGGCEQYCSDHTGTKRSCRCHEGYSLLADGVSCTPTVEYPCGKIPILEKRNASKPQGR
Protocol: (§1) Enzyme assays (except factor VIIa assays, see below) were conducted in 20 mM Tris, 150 mM NaCl, pH 7.4 (TBS) at room temperature (22° C.). The final volume for all reaction mixtures was 2.0 ml. Fluorogenic substrates were dissolved in DMSO to a stock concentration of 10 mM. The 10 mM stock solution was diluted in TBS to the final working concentration prior to all assays. Enzyme was added to mixtures containing buffer components and substrate and the initial rate of substrate hydrolysis was measured as the change in fluorescent intensity over time, corresponding to the generation of the particular 6-amino-1-naphthalenesulfonamide fluorophore from the provided substrate. Quantitation of substrate hydrolysis was accomplished by establishing a standard curve from the appropriate fluorescent moiety. Fluorescence was monitored (continuously or discontinuously) using a Perkin Elmer fluorescence spectrophotometer, model MPF-44A, equipped with a standard chart recorder. The fluorophore was detected using monochrometers set at an excitation wavelength of 352 nm and an emission wavelength of 470 nm. Light scattering artifacts were minimized using a 399 nm cut off filter in the emission light beam.
Factor VII assays were conducted in 20 mM HEPES, 150 mM NaCl, 5 mM CaCl2, pH 7.4 (HBS) at 37° C. The final volume for all reactions was 1.6 ml. 6-(Mes-D-Leu-Gly-Arg)amino-1-(N,N-diethyl)naphthalenesulfonamide was dissolved in DMSO to a stock concentration of 10 mM. This 10 mM stock solution of was diluted in HBS to final working concentration prior to all assays. For reactions involving tissue factor (TF) and phospholipid vesicles, recombinant human tissue factor was solubilized in either 0.04% n-dodecyl octaethylene glycol (C12 E8) or 0.8% octyl glucoside. The TF/n-dodecyl octaethylene glycol was then relipidated into PCPS or PC vesicles by a 30 minute incubation step as described by Lawson & Mann, J. Biol. Chem. 266: 11317-11327 (1991). TF/octyl glucoside was relipidated into PC or PCPS vesicles by a thirty minute incubation step followed by exhaustive dialysis. The final concentration of tissue factor used in the studies described here ranged from 2 to 50 nM depending on the nature of the experiment.
Fifteen minutes prior to the start of all reactions factor VIIa was added to the reaction system. This incubation period was followed by the addition of substrate (1 μM to 400 μM) to the mixture to start the reaction. In experiments designed to determine kinetic constants of substrate hydrolysis, 50 nM rVIIa was used when no tissue factor was present in the reaction system, while 0.5 nM rVIIa was used when tissue factor was present in the reaction system. The rate of substrate hydrolysis was measured by change in fluorescence over time, which corresponded with the generation of the 6-amino-1-(N,N-diethyl)naphthalenesulfonamide from the provided substrate. The kinetic constants of 6-(Mes-D-Leu-Gly-Arg)amino-1-(N,N-diethyl)naphthalenesulfonamide hydrolysis as a function of factor VIIa/tissue factor complex assembly are shown in Table 10.

plasmin (Plm) = plasmin (Plm) (Homo sapiens, UniProt P00747); assay: Fluorogenic enzyme assay (Example 5); conditions: 10 nM enzyme, substrate 1 μM
Procedure, shortened: (§2)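 Run in TBS (20 mM Tris, 150 mM NaCl, pH 7.4) at 22° C; initial rates of fluorogenic substrate hydrolysis followed by release of 6-amino-1-naphthalenesulfonamide fluorophore (ex 352 nm, em 470 nm), quantified against fluorophore standard curve. Km and kcat derived by non-linear fit to Michaelis-Menten equation.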

urokinase (u-PA) = urokinase (u-PA) (Homo sapiens, UniProt P00749); assay: Fluorogenic enzyme assay (Example 5); conditions: 100 nM enzyme, substrate 1 μM
[1] = biological target: tissue plasminogen activator (t-PA) (Homo sapiens, UniProt P00750); assay: Fluorogenic enzyme assay (Example 5); conditions: 100 nM enzyme, substrate 1 μM
Procedure, shortened: as §2

factor IXa = factor IXa (Homo sapiens, UniProt P00740); assay: Fluorogenic enzyme assay (Example 5); set-up: key to Kinetic constants, IXa (symbol b): slow substrate hydrolysis, no kinetic constants calculated
Protocol: as §1
The kinetic constants of substrate hydrolysis were determined using the non-linear least squares regression analysis program ENZFITTER (Cambridge, UK). This program was used to iteratively fit initial rates of substrate hydrolysis to the Michaelis-Menten equation and the kinetic constants of substrate hydrolysis (Km) and (kcat) were calculated.

factor Xa [2] = biological target: T2, factor Xa (Homo sapiens, UniProt P00742); assay: Fluorogenic enzyme assay (Example 5); conditions: for TIME TO 10% HYDROLYSIS (HOURS), Xa: 10 nM enzyme, substrate 1 μM; for Km / kcat /Km, Xa / kcat, Xa: Table 9
Procedure, shortened: as §2

factor Xa [3] = biological target: T2, factor Xa; assay: Kinetic constants of substrate hydrolysis, Chromozyme TH vs TosGPR-ANSN (Table A); conditions: 22° C., 0.02M TBS pH 7.4, 0.15M NaCl
Protocol: (§3) The 6-amino-1-naphthalenesulfonamide detecting group increased the specificity of the overall kinetic efficiency of substrate hydrolysis by thrombin relative to the rate of hydrolysis of the p-nitroanilide substrate chromozyme TH (American Diagnostics). Commercially available substrate (Chromozyme TH, TosGPR-p-NA) was compared to a substrate of the present invention, Tosgly-pro-arg-ANSN(i-C4 H9) (TosGPR-ANSNH(i-C4 H9)) in an assay performed at 22° C. in 0.02M TBS buffer at pH 7.4, containing 0.15M NaCl.

factor IIa = biological target: T3, factor IIa (Homo sapiens, UniProt P00734); assay: as above; conditions: 22° C., 0.02M TBS pH 7.4, 0.15M NaCl
T3 construct: 0.5 nM human thrombin (IIa)
Protocol: as §3

[4] = biological target: activated protein C (APC) (Homo sapiens, UniProt P04070); assay: Fluorogenic enzyme assay (Example 5); conditions: for TIME TO 10% HYDROLYSIS (HOURS), APC: 10 nM enzyme, substrate 1 μM; for Km / kcat /Km, APC / kcat, APC: Table 9
Procedure, shortened: as §2

thrombin (IIa) = biological target: T4, thrombin (IIa) (Homo sapiens, UniProt P00734); assay: Fluorogenic enzyme assay (Example 5); conditions: for TIME TO 10% HYDROLYSIS (HOURS), IIa: substrate 1 μM
T4 construct: 0.5 nM human thrombin (IIa)
Procedure, shortened: as §2

T2 sequence (P00742 235-488 limits assumed): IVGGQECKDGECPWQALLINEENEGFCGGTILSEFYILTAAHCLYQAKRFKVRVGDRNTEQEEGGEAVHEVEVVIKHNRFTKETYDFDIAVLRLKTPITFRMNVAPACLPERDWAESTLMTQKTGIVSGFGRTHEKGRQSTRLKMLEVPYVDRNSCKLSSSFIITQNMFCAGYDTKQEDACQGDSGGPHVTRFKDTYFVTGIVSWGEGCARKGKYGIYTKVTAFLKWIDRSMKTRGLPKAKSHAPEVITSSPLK
T2 sequence (P00742 41-179 limits assumed): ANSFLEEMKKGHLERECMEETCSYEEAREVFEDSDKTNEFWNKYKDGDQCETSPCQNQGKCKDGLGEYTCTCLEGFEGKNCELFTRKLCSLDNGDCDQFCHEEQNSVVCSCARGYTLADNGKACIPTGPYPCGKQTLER
tissue plasminogen activator (t-PA), sequence (P00750 36-562, species assumed): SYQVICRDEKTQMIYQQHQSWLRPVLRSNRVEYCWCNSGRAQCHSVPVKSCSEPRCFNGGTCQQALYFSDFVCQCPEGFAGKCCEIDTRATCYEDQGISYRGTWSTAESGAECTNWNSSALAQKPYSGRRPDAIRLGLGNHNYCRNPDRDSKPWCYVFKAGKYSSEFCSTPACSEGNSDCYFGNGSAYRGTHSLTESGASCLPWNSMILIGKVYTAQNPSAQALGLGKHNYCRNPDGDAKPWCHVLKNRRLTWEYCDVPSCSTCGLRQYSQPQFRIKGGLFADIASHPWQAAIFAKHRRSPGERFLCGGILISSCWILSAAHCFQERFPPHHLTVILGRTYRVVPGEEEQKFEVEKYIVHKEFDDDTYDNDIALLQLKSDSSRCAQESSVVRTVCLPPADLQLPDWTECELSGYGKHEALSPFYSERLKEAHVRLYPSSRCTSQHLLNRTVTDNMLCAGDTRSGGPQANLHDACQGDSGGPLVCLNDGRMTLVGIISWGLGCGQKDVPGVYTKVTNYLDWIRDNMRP
factor IXa, sequence (P00740 227-461 limits assumed): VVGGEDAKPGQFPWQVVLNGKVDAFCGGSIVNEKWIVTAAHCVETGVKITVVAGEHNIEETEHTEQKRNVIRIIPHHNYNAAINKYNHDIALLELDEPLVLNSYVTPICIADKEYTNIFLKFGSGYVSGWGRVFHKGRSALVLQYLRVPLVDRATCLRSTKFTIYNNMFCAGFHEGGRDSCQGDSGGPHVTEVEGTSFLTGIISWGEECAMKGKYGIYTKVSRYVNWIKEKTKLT
factor IXa, sequence (P00740 47-191 limits assumed): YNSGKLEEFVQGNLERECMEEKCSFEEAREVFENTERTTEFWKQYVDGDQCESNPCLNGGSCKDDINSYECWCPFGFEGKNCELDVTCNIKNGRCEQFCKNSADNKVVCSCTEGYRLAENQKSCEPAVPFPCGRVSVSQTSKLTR
activated protein C (APC), sequence (P04070 212-461 limits assumed): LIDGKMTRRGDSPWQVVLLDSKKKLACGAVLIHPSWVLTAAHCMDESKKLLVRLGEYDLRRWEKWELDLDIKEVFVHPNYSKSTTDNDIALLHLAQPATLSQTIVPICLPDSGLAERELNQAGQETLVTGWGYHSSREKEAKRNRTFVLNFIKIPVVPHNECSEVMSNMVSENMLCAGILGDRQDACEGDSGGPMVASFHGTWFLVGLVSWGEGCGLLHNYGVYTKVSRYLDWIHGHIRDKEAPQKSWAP
activated protein C (APC), sequence (P04070 43-197 limits assumed): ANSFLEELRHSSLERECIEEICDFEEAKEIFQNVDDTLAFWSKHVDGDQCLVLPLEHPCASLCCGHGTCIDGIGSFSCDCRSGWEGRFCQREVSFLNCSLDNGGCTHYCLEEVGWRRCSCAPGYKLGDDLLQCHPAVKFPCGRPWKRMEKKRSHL
plasmin (Plm), sequence (P00747 581-810 limits assumed, species assumed): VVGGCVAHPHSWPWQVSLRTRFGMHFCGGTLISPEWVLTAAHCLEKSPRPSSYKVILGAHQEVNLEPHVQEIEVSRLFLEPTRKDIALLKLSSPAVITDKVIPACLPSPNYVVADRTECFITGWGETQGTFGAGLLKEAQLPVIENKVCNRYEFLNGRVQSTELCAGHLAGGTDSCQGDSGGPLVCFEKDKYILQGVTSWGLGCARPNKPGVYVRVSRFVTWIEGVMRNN
plasmin (Plm), sequence (P00747 97-580 limits assumed, species assumed): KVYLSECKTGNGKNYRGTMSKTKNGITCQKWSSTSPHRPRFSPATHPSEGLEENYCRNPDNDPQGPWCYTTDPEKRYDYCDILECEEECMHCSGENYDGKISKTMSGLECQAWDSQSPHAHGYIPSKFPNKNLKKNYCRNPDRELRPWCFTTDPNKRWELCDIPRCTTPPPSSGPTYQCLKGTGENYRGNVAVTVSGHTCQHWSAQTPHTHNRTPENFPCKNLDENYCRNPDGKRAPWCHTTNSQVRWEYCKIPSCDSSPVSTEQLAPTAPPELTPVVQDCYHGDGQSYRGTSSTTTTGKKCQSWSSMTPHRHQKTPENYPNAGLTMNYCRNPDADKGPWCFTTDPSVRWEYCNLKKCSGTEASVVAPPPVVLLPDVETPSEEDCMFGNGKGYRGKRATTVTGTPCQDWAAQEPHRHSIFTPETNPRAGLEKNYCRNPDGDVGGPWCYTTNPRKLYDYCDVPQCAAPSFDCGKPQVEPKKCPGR

`Cc1ccc(S(=O)(=O)NCC(=O)N2CCC[C@H]2C(=O)N[C@@H](CCCNC(=N)N)C(=O)Nc2ccc3c(S(=O)(=O)NCC(C)C)cccc3c2)cc1` [TosGPR-ANSNH(i-C4 H9)] was tested, and the “hydrolysis, VIIa (symbol d)” value (factor VIIa) was “d (hydrolysis at 100 hours was less than 10%.)”, the “TIME TO 10% HYDROLYSIS (HOURS), Plm” value (plasmin (Plm)) was 0.25 h and the “TIME TO 10% HYDROLYSIS (HOURS), u-PA” value (urokinase (u-PA)) was 0.01 h. For the same molecule, the “TIME TO 10% HYDROLYSIS (HOURS), t-PA” value [1] was 2 h, the “TIME TO 10% HYDROLYSIS (HOURS), IXa” value (factor IXa; 100 nM enzyme, substrate 1 μM) was 42 h and the Km (factor IXa; Table 9) was 123 µM. For the same molecule, the “kcat, IXa” value (factor IXa; Table 9) was 0.3 s⁻¹, the “kcat/Km, IXa” value (factor IXa; Table 9) was 2400 M⁻¹ s⁻¹ and the “TIME TO 10% HYDROLYSIS (HOURS), Xa” value (factor Xa [2]) was 0.05 h. The Km (factor Xa [2]) was 35.3 µM, the “kcat /Km, Xa” value (factor Xa [2]) was 6800 M⁻¹ s⁻¹ and the “kcat, Xa” value (factor Xa [2]) was 2.4 s⁻¹. It also gave a Kcat (factor Xa [3]) of 11.2 s⁻¹, a Km (factor Xa [3]) of 132 µM and a Kcat (factor IIa) of 45.6. For the same molecule, the Km (factor IIa) was 10.5 µM, the “TIME TO 10% HYDROLYSIS (HOURS), APC” value [4] was 0.02 h and the Km [4] was 800 µM. For the same molecule, the “kcat /Km, APC” value [4] was 150000 M⁻¹ s⁻¹, the “kcat, APC” value [4] was 120 s⁻¹ and the “TIME TO 10% HYDROLYSIS (HOURS), IIa” value (thrombin (IIa); 1 nM enzyme (footnote c)) was 0.01 h. For the same molecule, the Km (thrombin (IIa); Table 9) was 11 µM and the “kcat, IIa” value (thrombin (IIa); Table 9) was 52.6 s⁻¹.

`Cc1ccc(S(=O)(=O)NCC(=O)N2CCC[C@H]2C(=O)N[C@@H](CCCNC(=N)N)C(=O)Nc2ccc([N+](=O)[O-])cc2)cc1` [Chromozyme TH, reference compound] (Tos-Gly-Pro-Arg-pNA) showed a Kcat (factor Xa [3]) of 244 s⁻¹, a Km (factor Xa [3]) of 364 µM and a Kcat (factor IIa) of 14.1. It also gave a Km (factor IIa) of 13.8 µM.

With `Br.Br.CC(C)C[C@@H](N)C(=O)N1CCC[C@H]1C(=O)N[C@@H](CCCNC(=N)N)C(=O)Nc1ccc2c(S(=O)(=O)N3CCCCC3)cccc2c1` [D-LPR-ANSN(CH2)5] the “hydrolysis, VIIa (symbol d)” value (factor VIIa) was “d (hydrolysis at 100 hours was less than 10%.)”, the “TIME TO 10% HYDROLYSIS (HOURS), Plm” value (plasmin (Plm)) was 0.33 h and the “TIME TO 10% HYDROLYSIS (HOURS), u-PA” value (urokinase (u-PA)) was 1 h. The “TIME TO 10% HYDROLYSIS (HOURS), t-PA” value [1] was 1.3 h, the “TIME TO 10% HYDROLYSIS (HOURS), IXa” value (factor IXa; 100 nM enzyme, substrate 1 μM) was 4 h and the Km (factor IXa; Table 9) was 343 µM. For the same molecule, the “kcat, IXa” value (factor IXa; Table 9) was 0.4 s⁻¹, the “kcat/Km, IXa” value (factor IXa; Table 9) was 1170 M⁻¹ s⁻¹ and the “TIME TO 10% HYDROLYSIS (HOURS), Xa” value (factor Xa [2]) was 0.4 h. The Km (factor Xa [2]) was 400 µM, the “kcat /Km, Xa” value (factor Xa [2]) was 7250 M⁻¹ s⁻¹ and the “kcat, Xa” value (factor Xa [2]) was 2.9 s⁻¹. The “TIME TO 10% HYDROLYSIS (HOURS), APC” value [4] was 0.02 h, the Km [4] was 160 µM and the “kcat /Km, APC” value [4] was 6880 M⁻¹ s⁻¹. For the same molecule, the “kcat, APC” value [4] was 1.1 s⁻¹, the “TIME TO 10% HYDROLYSIS (HOURS), IIa” value (thrombin (IIa); 1 nM enzyme (footnote c)) was 0.01 h and the Km (thrombin (IIa); Table 9) was 7.7 µM. The “kcat, IIa” value (thrombin (IIa); Table 9) was 11.6 s⁻¹.

`CCCNS(=O)(=O)c1cccc2cc(NC(=O)[C@H](CCCNC(=N)N)NC(=O)[C@H](Cc3ccccc3)NC(=O)[C@@H]3CCCN3)ccc12.Cl.Cl` [PFR-ANSNHC3 H7] was tested, and the “hydrolysis, VIIa (symbol d)” value (factor VIIa) was “d (hydrolysis at 100 hours was less than 10%.)”, the “TIME TO 10% HYDROLYSIS (HOURS), Plm” value (plasmin (Plm)) was 13 h and the “TIME TO 10% HYDROLYSIS (HOURS), u-PA” value (urokinase (u-PA)) was 6 h. For the same molecule, the “hydrolysis, t-PA (symbol d)” value ([1]; at 100 hours) was “d (hydrolysis at 100 hours was less than 10%.)”, the “Kinetic constants, IXa (symbol b)” value (factor IXa; Table 9) was “b” and the “hydrolysis, IXa (symbol d)” value (factor IXa; at 100 hours, 100 nM enzyme, substrate 1 μM) was “d (hydrolysis at 100 hours was less than 10%.)”. For the same molecule, the “TIME TO 10% HYDROLYSIS (HOURS), Xa” value (factor Xa [2]) was 1.25 h, the Km (factor Xa [2]) was 667 µM and the “kcat /Km, Xa” value (factor Xa [2]) was 2000 M⁻¹ s⁻¹. For the same molecule, the “kcat, Xa” value (factor Xa [2]) was 1.33 s⁻¹, the “TIME TO 10% HYDROLYSIS (HOURS), APC” value [4] was 0.25 h and the Km [4] was 240 µM. For the same molecule, the “kcat /Km, APC” value [4] was 19600 M⁻¹ s⁻¹, the “kcat, APC” value [4] was 4.7 s⁻¹ and the “TIME TO 10% HYDROLYSIS (HOURS), IIa” value (thrombin (IIa); 10 nM enzyme) was 5 h. For the same molecule, the Km (thrombin (IIa); Table 9) was 600 µM, the “kcat /Km, IIa” value (thrombin (IIa); Table 9) was 600 M⁻¹ s⁻¹ and the “kcat, IIa” value (thrombin (IIa); Table 9) was 0.36 s⁻¹.
